{
  "source": "patent US20250114337A1",
  "about": "“METHODS FOR VASCULAR REGENERATION AND WOUND TREATMENT” (THE METHODIST HOSPITAL, priority 2022, published 2025)",
  "system": "ischemic hindlimb model",
  "assay": "ischemic hindlimb model in fibroblast lineage tracing Fsp1-Cre: R26R-EYFP mice",
  "format": "in vivo, mouse",
  "conditions": "7 days post-surgery",
  "procedure": "Using established transdifferentiation protocol and metabolomics profiling to assess the global metabolic changes during transdifferentiation. […] To determine the role of this metabolite in transdifferentiation, the effect of Thiamet G was assessed, an inhibitor of OGA, which enhances O-GlcNAcylation. Thiamet G increased transdifferentiation efficiency in vitro. In a fibroblast lineage tracing mice, Fsp1-Cre: R26R-EYFP mice, Thiamet G increased tissue O-glycnacylation, increased capillary density and limb perfusion, and increased the number of fibroblasts transdifferentiating into endothelial cells (i.e. FSP+CD31+ cell) in an ischemic hindlimb model.\nAngiogenic transdifferentiation in limb ischemia. A fibroblast lineage tracing mouse model (Fsp1-Cre: R26R-EYFP) was used to detect transdifferentiation in vivo in a murine model of limb ischemia (Meng, S., et al., Circulation, 2020. 142 (17): p. 1647-1662). […] This population is abolished when the mice are treated with anti-inflammatory drugs, such as dexamethasone. Intriguingly, the disappearance of these cells is associated with a reduction in perfusion recovery and worsening clinical scores. Similar results are achieved when inflammatory signaling is impaired, as in Fsp1-Cre: Rela flox/flox mice. In these animals, NFκB signaling is blocked in the Fsp1+fibroblasts, associated with a dramatic reduction in transdifferentiated fibroblasts (i.e. YFP+CD144+ cells), and impaired perfusion (Meng. S., et al., Circulation, 2020. 142 (17): p. 1647-1662). […] Cluster 8 produced angiogenic cytokines, whereas Cluster 5 expressed genes associated with EC identity (i.e CD144). But only Cluster 5 could generate EC-like networks in Matrigel whereas other fibroblasts, including Cluster 8 fibroblasts, formed nodal structures typical of fibroblasts in Matrigel. The data support the idea that transdifferentiation may occur in vivo with tissue ischemia, and is dependent on inflammatory signaling. This model can be used to study the contribution of O-GlcNAcylation in transdifferentiation and limb ischemia recovery in vivo. A similar lineage tracing approach can be used with tamoxifen-inducible Col1A2-Cre/ERT: R26R-tdTomato mouse strain to study the contribution of O-GlcNAcylation in transdifferentiation and limb ischemia recovery in vivo.\nTo determine if O-GlcNAcylation enhances revascularization through transdifferentiation, fibroblasts lineage tracing Fsp1-Cre: R26R-EYFP mice strain were utilized where it was previously observed the in situ transdifferentiation phenomenon (FIG. 20A). In this model, all the fibroblasts expressing Fsp1 (fibroblast-specific protein1) are marked with YFP. With this model, a significant increase in the FSP-expressing cell progeny in the ischemic limb was identified compared with the sham-operated limb 3 days after the femoral artery ligation was perform (FIG. 20A) and compare the YFP+ cells over the different time points (FIG. 20A). The percentage of the YFP+CD31+CD11b-cell population which is considered the transdifferentiation population was analyzed further. […] To determine the role of the O-GlcNAcylation on the transdifferentiation, the Fsp1-Cre: R26R-EYFP mice that are undergoing vascular recovery with OSMI were treated, and the transdifferentiation population in the limb muscle tissue 7 days post-surgery was analyzed.",
  "data": [
    {"smiles": "CCOC(=O)CN(Cc1cccs1)C(=O)[C@H](NS(=O)(=O)c1cc2ccc(=O)[nH]c2cc1Cl)c1ccccc1OC", "note": "[OSMI]", "values": [
      {"measurement": "transdifferentiation population (YFP+CD31+CD11b-) in limb muscle tissue", "value": "significantly reduced"}
    ]}
  ]
}
